Test results as given in patent publication US7517874B2 (priority 2007, dated 2009).

Columns and labels:
rat CB2 receptor (rCB2) = molecular target: T1, rat CB2 receptor (rCB2) (Rattus norvegicus, UniProt Q9QZN9); experiment: cell-based; assay type: cell-based; settings: for +/− RCB2: agonist or inverse agonist at rCB2
T1 sequence (Q9QZN9 1-360): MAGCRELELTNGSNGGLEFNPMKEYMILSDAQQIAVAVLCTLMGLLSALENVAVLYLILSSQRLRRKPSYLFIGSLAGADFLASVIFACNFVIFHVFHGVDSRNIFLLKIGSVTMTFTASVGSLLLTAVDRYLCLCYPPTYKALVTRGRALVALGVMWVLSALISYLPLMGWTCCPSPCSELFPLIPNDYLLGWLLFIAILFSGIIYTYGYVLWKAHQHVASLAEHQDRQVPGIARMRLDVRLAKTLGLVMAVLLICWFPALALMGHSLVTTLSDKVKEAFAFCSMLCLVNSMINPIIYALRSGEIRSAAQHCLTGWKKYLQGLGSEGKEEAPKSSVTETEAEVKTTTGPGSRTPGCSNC
In short: (§1)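 Agonism or inverse agonism was assessed as change in intracellular cAMP in CHO-K1 cells expressing human CB1 or rat CB2 (genomic DNA, pcDNA3.1).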

[1] = molecular target: human CB1 receptor (hCB1) (Homo sapiens, UniProt P21554); experiment: cell-based; assay type: cell-based
human CB1 receptor (hCB1), sequence (P21554 whole entry): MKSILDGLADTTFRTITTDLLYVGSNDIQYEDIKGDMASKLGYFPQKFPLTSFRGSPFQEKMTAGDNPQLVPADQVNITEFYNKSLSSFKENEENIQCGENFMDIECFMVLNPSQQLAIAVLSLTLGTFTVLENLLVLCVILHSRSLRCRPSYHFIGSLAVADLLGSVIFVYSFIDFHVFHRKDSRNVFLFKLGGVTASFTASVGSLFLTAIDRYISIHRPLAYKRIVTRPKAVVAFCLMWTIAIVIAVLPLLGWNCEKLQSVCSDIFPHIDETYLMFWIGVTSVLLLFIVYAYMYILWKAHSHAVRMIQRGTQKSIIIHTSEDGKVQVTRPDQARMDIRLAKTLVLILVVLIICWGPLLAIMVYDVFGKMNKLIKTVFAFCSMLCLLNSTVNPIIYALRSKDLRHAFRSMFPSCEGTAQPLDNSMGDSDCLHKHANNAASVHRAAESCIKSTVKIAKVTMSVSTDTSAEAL
In short: as §1

Compound	+/− RCB2 (rat CB2 receptor (rCB2))	EC50 [1] [µM]	EC50 (rat CB2 receptor (rCB2)) [µM]
C/C=C/c1nc(C(=O)N[C@H](C(=O)NC)C(C)(C)C)c2n1CCN(C)C2 [Compound 243, (S,E)-N-(3,3-dimethyl-1-(methylamino)-1-oxobutan-2-yl)-7-methyl-3-(prop-1-enyl)-5,6,7,8-tetrahydroimidazo[1,5-a]pyrazine-1-carboxamide]	+	> 10	
CNC(=O)[C@@H](NC(=O)c1nc(-c2cccc(F)c2)n2c1CN(C)CC2)C(C)(C)C [Compound 244, (S)-N-(3,3-dimethyl-1-(methylamino)-1-oxobutan-2-yl)-3-(3-fluorophenyl)-7-methyl-5,6,7,8-tetrahydroimidazo[1,5-a]pyrazine-1-carboxamide]	+	> 10	
CNC(=O)[C@@H](NC(=O)c1nc(-c2cc(C(F)(F)F)ccc2F)n2c1CN(C)CC2)C(C)(C)C [Compound 245, (S)-N-(3,3-dimethyl-1-(methylamino)-1-oxobutan-2-yl)-3-(2-fluoro-5-(trifluoromethyl)phenyl)-7-methyl-5,6,7,8-tetrahydroimidazo[1,5-a]pyrazine-1-carboxamide]	−	> 10	
CNC(=O)[C@@H](NC(=O)c1nc(-c2cc(Cl)ccc2F)n2c1CN(C)CC2)C(C)(C)C [Compound 246, (S)-3-(5-chloro-2-fluorophenyl)-N-(3,3-dimethyl-1-(methylamino)-1-oxobutan-2-yl)-7-methyl-5,6,7,8-tetrahydroimidazo[1,5-a]pyrazine-1-carboxamide]	−	> 10	
CNC(=O)[C@@H](NC(=O)c1nc(-c2ccc(F)cc2)n2c1CN(C)CC2)C(C)(C)C [Compound 247, (S)-N-(3,3-dimethyl-1-(methylamino)-1-oxobutan-2-yl)-3-(4-fluorophenyl)-7-methyl-5,6,7,8-tetrahydroimidazo[1,5-a]pyrazine-1-carboxamide]	+	> 10	
CNC(=O)[C@@H](NC(=O)c1nc(-c2ccc(F)cc2F)n2c1CN(C)CC2)C(C)(C)C [Compound 248, (S)-3-(2,4-difluorophenyl)-N-(3,3-dimethyl-1-(methylamino)-1-oxobutan-2-yl)-7-methyl-5,6,7,8-tetrahydroimidazo[1,5-a]pyrazine-1-carboxamide]		> 10	> 10
CNC(=O)[C@@H](NC(=O)c1nc(-c2ccc(C)cc2F)n2c1CN(C)CC2)C(C)(C)C [Compound 249, (S)-N-(3,3-dimethyl-1-(methylamino)-1-oxobutan-2-yl)-3-(2-fluoro-4-methylphenyl)-7-methyl-5,6,7,8-tetrahydroimidazo[1,5-a]pyrazine-1-carboxamide]	−	> 10	
CNC(=O)[C@@H](NC(=O)c1nc(-c2cc(F)ccc2F)n2c1CN(C)CC2)C(C)(C)C [Compound 250, (S)-3-(2,5-difluorophenyl)-N-(3,3-dimethyl-1-(methylamino)-1-oxobutan-2-yl)-7-methyl-5,6,7,8-tetrahydroimidazo[1,5-a]pyrazine-1-carboxamide]		> 10	> 10
CNC(=O)[C@@H](NC(=O)c1nc(-c2cc(C)ccc2F)n2c1CN(C)CC2)C(C)(C)C [Compound 251, (S)-N-(3,3-dimethyl-1-(methylamino)-1-oxobutan-2-yl)-3-(2-fluoro-5-methylphenyl)-7-methyl-5,6,7,8-tetrahydroimidazo[1,5-a]pyrazine-1-carboxamide]	−	> 10	
CNC(=O)[C@@H](NC(=O)c1nc(-c2cccnc2)n2c1CN(C)CC2)C(C)(C)C [Compound 252, (S)-N-(3,3-dimethyl-1-(methylamino)-1-oxobutan-2-yl)-7-methyl-3-(pyridin-3-yl)-5,6,7,8-tetrahydroimidazo[1,5-a]pyrazine-1-carboxamide]	+	> 10	
